Results reported in patent US20060147936A1, “Use of a gene mutation in the human gnas gene for predicting risks of diseases, courses of the disease and for predicting the response to disease therapies” (priority 2003, published 2006).

Assays:
[1] = system: human fat cells; test: isoprenaline-stimulated lipolysis (glycerol release) in human fat cells ex vivo; assay type: cell-based; conditions: compared with other genotypes
Source text: For this purpose, human fat cells ex vivo were stimulated with isoprenaline and lipolysis quantified on the basis of glycerol release (Hauner H et al. Effects of the G protein beta3 subunit 825T allele on adipogenesis and lipolysis in cultured human preadipocytes and adipocytes. Horm Metab Res. 2002;34(9):475-80). […] This agrees with the observation of increased expression of Gαs protein in this genotype.
In fat cells from humans with the GG genotype, there is increased lipolysis, measured as the release of glycerol. […] This also agrees with the observation that persons with the GG genotype on a low calorie diet lose more weight than persons with the AA/AG genotype.

[2] = metformin therapy for 12 months in women with PCOS: HOMA-IR index and BMI; assay type: in vivo, human; conditions: metformin 12 months
Experimental: Polycystic ovarian syndrome (PCOS) is a frequent endocrine disease, characterized by chronic anovulation and hyperandrogenism. About 5% of all premenopausal women are affected by this. […] Treatment of PCOS patients with metformin improves fertility and androgen levels, reduces insulin resistance and facilitates weight reduction. For this purpose, women with the PCOS syndrome were treated with metformin for 12 months. Changes in the Body Mass Index (BMI) and insulin resistance according to the HOMA-IR method (homeostasis model assessment for insulin resistance) were investigated, together with the GNAS genotypes of the T393C polymorphism. FIG. 22A shoes the influence of therapy with an oral antidiabetic(metformin) on insulin resistance(A) and Body Mass Index (BMI; B) in women with polycystic ovaries. As already mentioned, therapy was carried out with metformin for 12 months. The change in the HOMA-IR index is given as a measure of the insulin resistance. It is evident that the most marked improvement of the HOMA-IR index is in individuals with the CC genotype(2.9), in contrast to 2.2 with the TC genotype and only 0.9 with the TT genotype. […] The changes in the BMI (a measure of body fat) behave similarly. […] This includes not only metformin, but also the so-called glitazones, tolbutamide, sulfonylureas and their derivatives, glinides and arcabose.

[3] = placebo-controlled, double blind study of sibutramine in obese patients: loss of weight after one year; assay type: in vivo, human; conditions: 15 mg/day for one year
Experimental: (§1) In the context of a placebo-controlled, double blind study, obese patients were given 15 mg sibutramine/day for one year. Sibutramine is a centrally active re-uptake inhibitor of noradrenaline and serotonin, both of which act through G protein-coupled receptors. Sibutramine (trade-name: Reductil, Meridia) enhances the feeling of satiety and makes it easier to lose weight in the context of structured measures to reduce weight (increase in physical activity, reduction in calorie intake). The outcome parameter of the study was the weight loss after one year.
The placebo or sibutramine (15 mg/day) were administered for one year. The loss of weight after one year (%) is illustrated, in dependence on the GNAS T393C genotype.
In addition, the study population was genotyped with respect to the GNAS G(-1211)A polymorphism (FIG. 19B). […] Placebo or sibutramine (15 mg/day) was administered for one year. The loss of weight (%) after one year is illustrated in dependence on the GNAS G(1211)A genotype. In the placebo group, patients with GNAS (-1211) GG genotype clearly could lose weight better(7.3%) than those with the AA- and AG genotype (1.8 and 3.1%, respectively). […] Thus therapy with sibutramine is predominantly indicated for patients with AG/AA genotype, whereas patients with CC genotype can also lose weight well under placebo. The time courses of the loss of weight for each genotype of the 393CT393C polymorphism (sibutramine versus placebo) are shown in FIGS. 20A, 20B and 20C. FIGS. 20 A, B and C illustrate the individual time courses for the changes in weight with placebo or sibutramine for the GNAS 393 CC genotype (A), the TC genotype (B) and the TT genotype (C). It is evident that only the TC and TT genotypes benefit from therapy with 15 mg sibutramine daily, whereas CC genotypes can lose weight without drug.

[4] = cardiovascular side-effects (heart rate, blood pressure) under therapy with sibutramine versus placebo; assay type: in vivo, human
Experimental: as §1
The connection between gene modifications in the GNAS gene and the change in heart rate was examined after treatment with sibutramine versus placebo (FIG. 25). The effects are illustrated as they depend on the T393C polymorphism. […] FIG. 26 makes clear the possible use of a gene modification in the human GNAS gene to predict the increase in diastolic blood pressure during treatment with sibutramine.
FIG. 27 illustrates once again the possible use of a gene modification in the human GNAS gene to predict an increase in the heart rate during therapy with sibutramine. This illustrates the effects, in dependence on genotypes of the G(-1211)A polymorphism. […] Finally, FIG. 28 illustrates the possibility of an additional use of a gene modification in the human GNAS gene in the prediction of an increase in systolic blood pressure during therapy with sibutramine.

## CC(C)NCC(O)c1ccc(O)c(O)c1 (stereo not shown) [isoprenaline]
[1]; fat cells from humans with GNAS G(-1211)A GG genotype
  stimulation of lipolysis (glycerol release): most marked stimulation of lipolysis
[1]; fat cells from individuals with GNAS 393 TT genotype
  stimulation of lipolysis (glycerol release): most marked stimulation of lipolysis

## CN(C)C(=N)N=C(N)N [metformin]
[2]; GNAS T393C CC genotype
  decrease in the BMI: 15.8%
  improvement of the HOMA-IR index (insulin resistance): 2.9
[2]; GNAS T393C TC genotype
  decrease in the BMI: 4.8%
  improvement of the HOMA-IR index (insulin resistance): 2.2
[2]; GNAS T393C TT genotype
  decrease in the BMI: 1.5%
  improvement of the HOMA-IR index (insulin resistance): 0.9

## CC(C)CC(N(C)C)C1(c2ccc(Cl)cc2)CCC1 (stereo not shown) [sibutramine]
[3]; GNAS G(-1211)A AG and AA genotype
  loss of weight after one year, sibutramine vs placebo: marked (p=0.027) increase in the loss of weight
[3]; GNAS G(-1211)A GG genotype
  loss of weight after one year, sibutramine vs placebo: favorable drug effect was not observed
[3]; GNAS T393C CC genotype
  loss of weight after one year, sibutramine vs placebo: favorable drug effect was not observed
[3]; GNAS T393C TC and TT genotype
  loss of weight after one year, sibutramine vs placebo: clear (p=0.027) increase in the loss of weight
[4]; GNAS 393 CC and TC genotypes
  change in diastolic blood pressure during therapy with sibutramine: does not occur
[4]; GNAS 393 TT genotype
  change in diastolic blood pressure during therapy with sibutramine: significant increase
[4]; GNAS -1211 GG genotype
  change in systolic blood pressure under therapy with sibutramine: lack of reduction of the systolic blood pressure
[4]; GNAS G(-1211)A GG genotype compared with AA/AG genotypes
  change in heart rate (sibutramine versus placebo): significantly greater change in heart rate
[4]; GNAS T393C CC genotype
  increase in heart rate with sibutramine versus placebo: This effect does not occur
[4]; GNAS T393C TC genotype
  increase in heart rate with sibutramine versus placebo: 10 beats per minute
[4]; GNAS T393C TT genotype
  increase in heart rate with sibutramine versus placebo: 20 beats per minute
